These results are taken from patent publication US6608086B2, “Dihydropyridines and new uses thereof” (Synaptic Pharmaceutical Corporation, priority 1993, dated 2003).

Counter-ions that a name gives are not always drawn. Like-named read-outs stand apart in the source and are kept apart here.

Experiment [1] concerns the target T1, α1C Human Adrenergic Receptor (Homo sapiens, UniProt P35348).
T1 construct: The entire coding region of α1C (1401 bp); expressed in transfected cells
T1 sequence (P35348 1-466): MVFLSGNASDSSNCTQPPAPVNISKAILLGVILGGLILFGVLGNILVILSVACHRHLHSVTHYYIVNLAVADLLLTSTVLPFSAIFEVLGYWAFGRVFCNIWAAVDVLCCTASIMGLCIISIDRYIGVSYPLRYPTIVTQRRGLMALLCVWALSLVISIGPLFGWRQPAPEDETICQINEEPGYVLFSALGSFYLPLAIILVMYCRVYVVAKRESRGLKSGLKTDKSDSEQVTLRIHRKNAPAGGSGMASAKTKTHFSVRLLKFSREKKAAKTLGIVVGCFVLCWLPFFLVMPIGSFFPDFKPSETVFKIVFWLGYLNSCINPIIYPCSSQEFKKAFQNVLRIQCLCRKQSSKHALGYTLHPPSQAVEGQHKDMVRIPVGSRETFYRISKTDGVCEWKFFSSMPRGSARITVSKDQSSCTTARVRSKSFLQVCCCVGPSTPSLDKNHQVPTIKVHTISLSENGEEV
Briefly: Radioligand binding, [3H]prazosin, cloned human α1C adrenergic receptor. The method in brief: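 LM(tk−) membranes (stable human α1C); [3H]prazosin 0.5 nM; 37° C., 20 min; Tris-HCl 50 mM/MgCl2 1 mM/ascorbate 0.1%, pH 7.5; NSB 10 μM phentolamine; GF/B filtration.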

For another experiment, the target named is T2, α2B receptor (Homo sapiens, UniProt P18089).
T2 construct: host or cells: LM(tk-) cells, line L-NGC-α2B
T2 sequence (P18089 1-450): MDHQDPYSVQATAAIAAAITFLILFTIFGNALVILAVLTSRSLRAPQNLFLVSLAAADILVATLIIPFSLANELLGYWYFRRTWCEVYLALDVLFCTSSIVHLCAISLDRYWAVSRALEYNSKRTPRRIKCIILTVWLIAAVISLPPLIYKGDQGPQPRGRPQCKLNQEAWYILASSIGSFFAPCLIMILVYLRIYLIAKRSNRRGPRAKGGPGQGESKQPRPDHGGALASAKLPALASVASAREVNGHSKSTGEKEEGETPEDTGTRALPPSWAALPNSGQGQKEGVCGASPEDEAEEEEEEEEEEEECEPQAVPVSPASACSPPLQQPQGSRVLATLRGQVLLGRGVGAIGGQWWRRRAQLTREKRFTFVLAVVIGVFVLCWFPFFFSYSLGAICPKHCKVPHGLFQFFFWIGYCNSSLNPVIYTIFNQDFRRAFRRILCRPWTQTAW
Briefly: Competition binding, [3H]rauwolscine, human α2B receptor. Conditions: pKi alpha-2 2b. The method in brief:
(§1)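 Lysates of LM(tk−) cells stably expressing each α2 subtype were suspended in 25 mM glycylglycine buffer (pH 7.6 at room temperature). Equilibrium competition binding used 0.5 nM [3H]rauwolscine, with nonspecific binding defined by 10 μM phentolamine; bound radioligand was separated by GF/B filtration.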

A further experiment has as its target T3, α2A receptor (Homo sapiens, UniProt P08913).
T3 construct: host or cells: LM(tk-) cells, line L-α2A
T3 sequence (P08913 1-465): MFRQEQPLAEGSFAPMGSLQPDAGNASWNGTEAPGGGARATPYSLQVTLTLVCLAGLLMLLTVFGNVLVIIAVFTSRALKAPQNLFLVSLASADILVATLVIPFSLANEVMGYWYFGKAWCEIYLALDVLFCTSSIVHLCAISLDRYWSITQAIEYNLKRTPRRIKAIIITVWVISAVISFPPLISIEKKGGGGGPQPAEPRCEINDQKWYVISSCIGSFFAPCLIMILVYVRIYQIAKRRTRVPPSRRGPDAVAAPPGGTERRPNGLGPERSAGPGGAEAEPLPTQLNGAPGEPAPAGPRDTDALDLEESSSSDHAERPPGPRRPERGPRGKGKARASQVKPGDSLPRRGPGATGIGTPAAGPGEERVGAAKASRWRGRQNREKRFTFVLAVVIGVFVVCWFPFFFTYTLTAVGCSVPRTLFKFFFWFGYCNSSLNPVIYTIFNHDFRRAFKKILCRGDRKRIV
Briefly: Competition binding, [3H]rauwolscine, human α2A receptor. An outline of the steps: as §1

Setting [2] is: pKi alpha-1 1c, cloned human α1C receptor, LM(tk−) cell membranes.
Setting [3] is: [3H]rauwolscine, human α2B receptor, LM(tk−) cells.
Setting [4] is: [3H]rauwolscine, human α2A receptor, LM(tk−) cells, read-out: pKi alpha-2 2a (converted).
[5] abbreviates: cloned human receptor in LM(tk-) cell membranes, SEM and n in lines below, read-out: pKi alpha-1 1c (converted).
The mark [6] stands for this setting: pKi alpha-1 1c, cloned human receptor in LM(tk-) cell membranes, SEM and n in lines below.
Where [7] appears, read: [3H]rauwolscine, LM(tk-) cell line L-NGC-α2B, SEM and n in lines below.
[8] abbreviates: [3H]rauwolscine, LM(tk-) cell line L-α2A, SEM and n in lines below, read-out: pKi alpha-2 2a (converted).
Setting [9] is: cloned human α1C receptor, LM(tk−) cell membranes, read-out: pKi alpha-1 1c (converted).

Consider `CCC1=C(C(=O)NCCCN2CCC(c3ccccc3)(c3ccccc3)CC2)C(c2ccc([N+](=O)[O-])cc2)C(C(N)=O)=C(COCCN=[N+]=[N-])N1` (stereo not drawn) [Example 149, 2-((2-Azidoethyl)oxy)methyl-3-carboxamido-6-ethyl-1,4-dihydro-4-(4-nitro) phenyl-5-(N-(3-(4,4-diphenylpiperidin-1-yl)propyl))carboxamidopyridine], for which the Ki in experiment [1] (setting [2]) was 5.5 nM; on α2B receptor (setting [3]), 562 nM; on α2A receptor (setting [4]), 501 nM.
Turning to `COC(=O)C1=C(C)NC(C)=C(C(=O)NCCN2CCC(c3ccccc3)(c3ccccc3)CC2)C1c1ccc([N+](=O)[O-])cc1` (stereo not drawn) [Example 52, 1,4-Dihydro-3-methoxycarbonyl-2,6-dimethyl-4-(4-nitrophenyl)-5-{N-[2-(4,4-diphenylpiperidin-1-yl)ethyl]}carboxamidopyridine hydrochloride hemihydrate], the Ki in experiment [1] (setting [5]) is 8.71 nM; at α2B receptor, 794 nM; on α2A receptor, 513 nM.
Taken in the same sequence, the figures for `COC(=O)C1=C(C)NC(C)=C(C(=O)NCCCN2CCC(c3ccccc3)(c3ccccc3)CC2)C1c1ccncc1` (stereo not drawn) [Example 5, 1,4-Dihydro-5-methoxycarbonyl-2,6-dimethyl-3-(N-(3-(4,4-diphenylpiperidin-1-yl)propyl)carboxamido)-4-(4-pyridyl)pyridine] were 11.2 nM, 2140 nM and 2240 nM.
As for `CC1=C(C(=O)NCCCN2CCC(c3ccccc3)(c3ccccc3)CC2)C(c2ccc([N+](=O)[O-])cc2)c2c([nH]c(=O)[nH]c2=O)N1` (stereo not drawn) [Example 64], the figures for the Ki (in experiment [1] (setting [6]); on α2B receptor (setting [7]); on α2A receptor (setting [8])) were 35.5 nM, 437 nM and 692 nM, respectively.
As for `CCC1=C(C(=O)NCCCN2CCC(c3ccccc3)(c3ccccc3)CC2)C(c2cccc(OC)c2)C(C(=O)NCCCN2CCC(c3ccccc3)(c3ccccc3)CC2)=C(CC)N1` [Example 112, 2,6-Diethyl-1,4-dihydro-4-(3-methoxyphenyl)-3,5-bis(N-(3-(4,4-diphenylpiperidin-1-yl)propyl)carboxamido)-pyridine], the Ki in experiment [1] (setting [2]) is 24.5 nM; at α2B receptor (setting [3]) it was 447 nM; at α2A receptor (setting [4]) it was 257 nM.
Regarding `CCC1=C(C(N)=O)C(c2ccc([N+](=O)[O-])cc2)C(C(=O)NCCCN2CCC(c3ccccc3)(c3ccccc3)CC2)=C(CC)N1` (stereo not drawn) [Example 42, 5-carboxamido-2,6-diethyl-1,4-dihydro-4-(4-nitrophenyl)-3-{N-[3-(4,4-diphenylpiperidin-1-yl)propyl]}carboxamidopyridine], the Ki is 1.26 nM in experiment [1] (setting [6]), 229 nM on α2B receptor (setting [7]) and 324 nM on α2A receptor (setting [8]).
For the compound `CNC(=O)C1=C(C)NC(C)=C(C(=O)NCCCN2CCC(O)(c3ccccc3)CC2)C1c1ccc([N+](=O)[O-])cc1` (stereo not drawn) [Example 162, 1,4-Dihydro-3-{N-[3-(4-hydroxy-4-phenylpiperidin-1-yl)propyl]}carboxamido-2,6-dimethyl-5-(N-methyl)carboxamido-4-(4-nitrophenyl)pyridine], the figures for the Ki (in experiment [1] (setting [2]); on α2B receptor (setting [3]); on α2A receptor (setting [4])) were 11.5 nM, 347 nM and 631 nM, respectively.
Take `COC(=O)C1=C(C)NC(C)=C(C(=O)N(C)CCCN2CCC(c3ccccc3)(c3ccccc3)CC2)C1c1ccc([N+](=O)[O-])cc1` (stereo not drawn) [Example 46, hydrochloride hemihydrate]: the Ki was 20.4 nM in experiment [1] (setting [5]), 490 nM on α2B receptor and 676 nM on α2A receptor.
Take `COC(=O)C1=C(C)NC(C)=C(C(=O)NCCCN2CCC(c3ccccc3)(c3ccccc3)CC2)C1c1cc[n+]([O-])cc1` (stereo not drawn) [Example 9, 1,4-Dihydro-3-methoxycarbonyl-2,6-Dimethyl-4-(1-oxido-4-pyridyl)-5-(N-(3-(4,4-diphenylpiperidin-1-yl)propyl)carboxamido)pyridine]: the Ki in experiment [1] (setting [6]) is 24 nM; on α2B receptor (setting [7]), 550 nM; on α2A receptor (setting [8]) it was 2190 nM.
With `CCC1=C(C(N)=O)C(c2ccc([N+](=O)[O-])cc2)C(C(=O)NCCCN2CCC(c3ccc(OC)cc3)(c3ccc(OC)cc3)CC2)=C(CC)N1` (stereo not drawn) [Example 103, 5-Carboxamido-2,6-diethyl-1,4-dihydro-3-{N-[3-(4,4-bis-(4-methoxyphenyl)piperidin-1-yl)propyl]}carboxamido}-4-(4-nitrophenyl)pyridine hydrochloride], the Ki in experiment [1] (setting [9]) was 10.7 nM; on α2B receptor it was 741 nM; at α2A receptor, 490 nM.
As to `CCC1=C(C(N)=O)C(c2ccc([N+](=O)[O-])cc2)C(C(=O)NCCCN2CCC3(CC2)C(=O)NCN3c2ccccc2)=C(CC)N1` (stereo not drawn) [Example 105, 5-Carboxamido-2,6-diethyl-1,4-dihydro-4-(4-nitrophenyl)-3-{N-[3-(1-phenyl-4-oxo-1,3,8-triazaspiro[4.3]decan-8-yl)propyl]}carboxamidopyridine hydrochloride hydrate], the Ki in experiment [1] (setting [9]) was 692 nM; on α2B receptor, 2190 nM; on α2A receptor, 1260 nM.
For the compound `CCC1=C(C(N)=O)C(c2ccc(S(C)(=O)=O)cc2)C(C(=O)NCCCN2CCC(c3ccccc3)(c3ccccc3)CC2)=C(C)N1` (stereo not drawn) [Example 118, 3-Carboxamido-2-ethyl-1,4-dihydro-4-(4-methanesulfonylphenyl)-6-methyl-3-(N-(3-(4,4-diphenylpiperidin-1-yl)propyl)carboxyamido)-pyridine], the Ki in experiment [1] (setting [2]) was 9.55 nM; on α2B receptor (setting [3]), 1450 nM; at α2A receptor (setting [4]), 3890 nM.
For `COC(=O)C1=C(C)N(C)C(C)=C(C(=O)OCCCN2CCC(c3ccccc3)(c3ccccc3)CC2)C1c1ccc([N+](=O)[O-])cc1` (stereo not drawn) [Example 92, 1,4-Dihydro-5-methoxycarbonyl-1,2,6-trimethyl-4-(4-nitrophenyl)-3-[3-(4,4-diphenylpiperidin-1-yl)propoxy]carbonylpyridine hydrochloride hydrate], the Ki in experiment [1] (setting [9]) is 3.09 nM; on α2B receptor, 724 nM; on α2A receptor, 3160 nM.
On to `COC(=O)C1=C(C)NC(C)=C(C(=O)NCCCN2CCC(c3ccccc3)(c3ccccc3)CC2)C1c1ccc(C#N)cc1` (stereo not drawn) [Example 12, 4-(4-Cyanophenyl)-1,4-dihydro-3-methoxycarbonyl-2,6-dimethyl-5-(N-(3-(4,4-diphenylpiperidin-1-yl)propyl)carboxamido)pyridine], for which the Ki in experiment [1] (setting [5]) was 1.82 nM; at α2B receptor it was 1260 nM; on α2A receptor, 776 nM.
Take `CCC1=C(C(=O)OCCC#N)C(c2ccc([N+](=O)[O-])cc2)C(C(=O)NCCCN2CCC(c3ccccc3)(c3ccccc3)CC2)=C(COCCN=[N+]=[N-])N1` (stereo not drawn) [Example 141]: the results for the Ki (in experiment [1] (setting [2]); at α2B receptor (setting [3]); at α2A receptor (setting [4])) were 5.37 nM, 437 nM and 603 nM, respectively.
